Measured values published in PMC6647401, “Phase I dose-escalation study of F14512, a polyamine-vectorized topoisomerase II inhibitor, in patients with platinum-refractory or resistant ovarian cancer” (Investigational New Drugs, 2018).
“And” between values parts separate entries of the source, which are not always exact repeats. Equal entries are not always repeated. Where two headings read alike, the source gives them in different places.

Key:
experimental models = system: experimental models; set-up: method as in PMID 19777159; conditions: cited from earlier work
[1] = system: patients with platinum-refractory or resistant ovarian cancer; assay type: in vivo
Protocol: This was an open-label, dose-escalation, multicenter, phase I study (EudraCT Number: 2012–005798-29) conducted in 3 investigational sites in France. The 10 mg/m^2/day dose of F14512 was planned as a starting dose (DL1) for escalation in cohorts of 3 to 6 patients until the MTD was reached. Dose escalation was based on a standard titration design by using increments of 33% except from the first dose escalation, which could proceed with a dose increment of 50% in the absence of grade 3 neutropenia and dose limiting toxicity (DLT) observed at DL1. Dose escalation then proceeded except if criteria of MTD were met at DL1. In that instance, the 5 mg/m^2/day dose was tested. All patients in a DL had to be followed for at least 3 weeks (cycle 1) for DLT evaluation before the first patient of the next dose level started treatment. The final decision to proceed to the next DL was made by the safety committee at the dose-escalation meeting. The MTD was defined as the DL at which 2/3 or 2/6 patients experienced a DLT during the first cycle. The Recommended Dose (RD) was the DL immediately below the MTD. A total of 10 evaluable patients had to be treated at the RD.
F14512 was administered as three-hour daily infusion through a central venous catheter for 3 consecutive days every 3 weeks depending on recovery to normal hematopoiesis or recovery of non-hematological toxicities to grade 1. During the first cycle, G- and GM-CSF use was prohibited, however, there were no such constraints in subsequent cycles.
DLTs were defined as one of the following drug-related AEs occurring during the first cycle: grade 4 neutropenia ≥ 7 days, grade 4 thrombocytopenia, or grade 3 thrombocytopenia requiring transfusion and/or associated with bleeding, grade 3 or 4 neutropenia concomitant with grade ≥ 3 infection or febrile neutropenia, any grade ≥ 3 gastrointestinal toxicity including grade ≥ 3 nausea, vomiting or diarrhea if persistent despite optimal antiemetic or anti-diarrheal treatment, any other drug-related grade ≥ 3 toxicity, any drug-related AE that required a delay of ≥ 2 weeks of the administration of cycle 2.

human cancer cell lines = system: human cancer cell lines; set-up: method as in PMID 19047165; conditions: in vitro; cited from earlier work
[2] = system: patients with platinum-refractory or resistant ovarian cancer; test: Safety: study drug-related adverse events (NCI-CTC v4.0); assay type: in vivo, human
Protocol: (§1) Toxicities were graded according to National Cancer Institute - Common Toxicity Criteria (NCI - CTC) for adverse events (AEs) (version 4.0). DLT determination criteria and safety assessments are described in the Online Resource. Response was assessed by using GCIG response criteria incorporating RECIST version 1.1 and CA-125. Plasma PK assessments and statistical methods are described in the Online Resource.
Safety was assessed by physical examination on days 1, 2 and 3 during each cycle. Complete blood cell counts were performed on days 4, 6, 8, 10, 12 and 15 of the first cycle, on day 1 of each subsequent cycle and then on a weekly basis thereafter. Serum chemistry was performed weekly during the first cycle and at the end of each cycle thereafter except serum magnesium and potassium which were measured twice weekly during the first week of each cycle and then, weekly for the following weeks. ECGs were performed at baseline and on day 1 of each cycle.

[3] = system: relapsed or refractory acute myeloid leukemia (AML); set-up: method as in earlier work; conditions: single agent, AML patients at first relapse; cited from earlier work
[4] = Plasma pharmacokinetics (LC/MS/MS); assay type: in vivo, human; conditions: for AUCinf/dose level of F14512: n = 11, mean [range], three-hour infusion
Protocol: Plasma PK was studied after the administrations on days 1 and 3 of cycle 1 (pre-dose, T0+1.5 h, T0+3 h, T0+3.5 h, T0+4 h, T0+6 h T0+12 h, T0+24 h) and day 1 of cycle 2 (pre-dose, T0+3.5 h, T0+8 h, T0+24 h). F14512, its metabolite F16490 and the metabolite BG (an additional metabolite peak found in human during exploratory metabolite identification analysis and not retrieved in animal species) were assayed in plasma using liquid chromatography coupled with tandem mass spectrometry (LC/MS/MS).
Continuous data were summarized with frequency, median, range, mean, standard deviation and standard error if relevant. Categorical data were presented as frequencies and percentages. 95% confidence intervals (CI) were calculated following the exact method. PK parameters were compared for reproducibility between day 1 and day 3 of cycle 1 for F14512 and its metabolite F16490 using a pairwise t-test or a Wilcoxon test according to the normality of their distribution. Dose-proportionality of PK parameters for F14512 and its metabolite F16490 was investigated by graphical display only. A p value <0.05 was considered statistically significant. Data were analyzed using the SAS® system software version 9.3 for Windows® (Statistical Analysis System, Cary, NC, USA).

[5] = system: PTS(+) A2780R cisplatin-resistant cell line; set-up: method as in PMID 26404751; conditions: preliminary studies; cited from earlier work
[6] = system: platinum-refractory or resistant ovarian cancer; test: Efficacy by GCIG response criteria (RECIST 1.1 and CA-125); assay type: in vivo, human
Protocol: as §1

SK-OV3 cancer cells = system: SK-OV3 cancer cells; set-up: method as in PMID 26404751; conditions: cited from earlier work
[7] = system: platinum-resistant ovarian cancer (PROC); conditions: cited from earlier work
[8] = Overall n = 11 (both dose levels), worse grade by patient

COc1cc([C@@H]2c3cc4c(cc3[C@@H](NC(=O)CNCCCNCCCCNCCCN)[C@H]3COC(=O)[C@H]23)OCO4)cc(OC)c1O [F14512]
Tumor response in experimental models (experimental models; after intravenous or oral administration): complete tumor regression | Experimental models with antitumor efficacy (experimental models; in vivo): 13/19 | Response rate in experimental models (experimental models; in vivo): 68% | Number of DLTs reported ([1]; 5 mg/m^2/day, in 2/6 treated patients): 2 DLTs | Number of DLTs reported ([1]; 10 mg/m^2/day, in 3/4 evaluable patients): 6 DLTs | Permanent treatment discontinuation because of study drug-related toxicity ([1]; in vivo): 5 patients | Maximum tolerated dose (MTD) ([1]; three-hour daily infusion, 3 consecutive days every 3 weeks, both dose levels defined as MTD): 5 mg/m^2/day and 10 mg/m^2/day | Cell lines with superior anti-proliferative activity (human cancer cell lines): 21/29 | Study drug-related AE: Confusional state, Overall grades ([2]; 5 mg/m^2/day, n = 6, worse grade by patient): 1 (16.7) N (%) | Grade 4 neutropenia, cycles affected / cycles administered ([2]; DL 5 mg/m^2/day): 14/16 | Neutropenic infection ([2]; DL 5 mg/m^2/day): 1 patient | Grade 4 neutropenia, cycles affected / cycles administered ([2]; DL 10 mg/m^2/day): 12/13 | Study drug-related AE: Alopecia, Overall grades [2, 8]: 2 (18.2) N (%) | Study drug-related AE: Any related TESS, Grade 3 [2, 8]: 6 (54.5) N (%) | Study drug-related AE: Any related TESS, Grade 4 [2, 8]: 1 (9.1) N (%) | Study drug-related AE: Any related TESS, Overall grades [2, 8]: 11 (100.0) N (%) | Study drug-related AE: Asthenia, Grade 3 [2, 8]: 2 (18.2) N (%) | Study drug-related AE: Asthenia, Overall grades [2, 8]: 9 (81.8) N (%) | Study drug-related AE: Blood and lymphatic system disorders, Grade 3 [2, 8]: 4 (36.4) N (%) | Study drug-related AE: Blood and lymphatic system disorders, Grade 4 [2, 8]: 1 (9.1) N (%) | Study drug-related AE: Blood and lymphatic system disorders, Overall grades [2, 8]: 5 (45.5) N (%) | Study drug-related AE: Confusional state, Overall grades [2, 8]: 1 (9.1) N (%) | Study drug-related AE: Constipation, Overall grades [2, 8]: 2 (18.2) N (%) | Study drug-related AE: Diarrhea, Overall grades [2, 8]: 2 (18.2) N (%) | Study drug-related AE: Dysgeusia, Overall grades [2, 8]: 1 (9.1) N (%) | Study drug-related AE: Dyspepsia, Overall grades [2, 8]: 1 (9.1) N (%) | Study drug-related AE: Febrile neutropenia, Grade 3 [2, 8]: 4 (36.4) N (%) | Study drug-related AE: Febrile neutropenia, Overall grades [2, 8]: 4 (36.4) N (%) | Study drug-related AE: Gastrointestinal disorders, Grade 3 [2, 8]: 2 (18.2) N (%) | Study drug-related AE: Gastrointestinal disorders, Overall grades [2, 8]: 6 (54.5) N (%) | Study drug-related AE: General disorders and administration site conditions, Grade 3 [2, 8]: 2 (18.2) N (%) | Study drug-related AE: General disorders and administration site conditions, Overall grades [2, 8]: 9 (81.8) N (%) | Study drug-related AE: Gingivitis, Overall grades [2, 8]: 1 (9.1) N (%) | Study drug-related AE: Infections and infestations, Overall grades [2, 8]: 1 (9.1) N (%) | Study drug-related AE: Muscle spasms, Overall grades [2, 8]: 2 (18.2) N (%) | Study drug-related AE: Musculoskeletal and connective tissue disorders, Overall grades [2, 8]: 2 (18.2) N (%) | Study drug-related AE: Myalgia, Overall grades [2, 8]: 1 (9.1) N (%) | Study drug-related AE: Nausea, Grade 3 [2, 8]: 2 (18.2) N (%) | Study drug-related AE: Nausea, Overall grades [2, 8]: 6 (54.5) N (%) | Study drug-related AE: Nervous system disorders, Overall grades [2, 8]: 1 (9.1) N (%) | Study drug-related AE: Neutropenia, Overall grades [2, 8]: 1 (9.1) N (%) | Study drug-related AE: Neutropenic infection, Overall grades [2, 8]: 1 (9.1) N (%) | Study drug-related AE: Night sweats, Overall grades [2, 8]: 1 (9.1) N (%) | Study drug-related AE: Onycholysis, Overall grades [2, 8]: 1 (9.1) N (%) | Study drug-related AE: Psychiatric disorders, Overall grades [2, 8]: 1 (9.1) N (%) | Study drug-related AE: Pyrexia, Overall grades [2, 8]: 1 (9.1) N (%) | Study drug-related deaths ([2]; all 11 patients): no study drug-related deaths | Vomiting ([2]; all 11 patients (36%)): 4 patients | Metabolism and nutrition disorder with decreased appetite ([2]; all 11 patients (46%)): 5 patients | Nausea ([2]; all 11 patients (55%)): 6 patients | Grade 4 neutropenia, share of treated patients ([2]; all 11 patients, both dose levels): 90.9% | Study drug-related SAEs per dose level ([2]; at each DL (10 and 5 mg/m^2/day)): 3 patients | Grade 4 neutropenia, cycles affected / cycles administered ([2]; both dose levels): 26/29 | Gastrointestinal disorders ([2]; in vivo): 6 patients | General disorders (mainly asthenia) ([2]; in vivo): 9 patients | Grade 3 febrile neutropenia ([2]; in vivo): 4 patients | Grade 4 neutropenia reported as serious drug-related AE ([2]; in vivo): 1 patient | Grade 4 neutropenia, share of cycles administered ([2]; in vivo): 89.7% | Study drug-related AE: Skin and subcutaneous tissue disorders, Overall grades ([2]; in vivo): 4 (36.4) N (%) | Study drug-related AE: Stomatitis, Overall grades ([2]; in vivo): 1 (9.1) N (%) | Study drug-related AE: Vomiting, Overall grades ([2]; in vivo): 4 (36.4) N (%) | Study drug-related serious AEs (SAEs) ([2]; in vivo): 6 patients | Complete remissions [3]: 36% | Dose dependent PK parameters versus dose level ([4]; 5 versus 10 mg/m^2/day, no statistical analysis): increased with DL | Cltot ([4]; D1 of cycle 1, n = 11, mean [range]): 13.2 [6.17–22.4] L/h | AUCinf/dose level of F14512 ([4]; D1 of cycle 1, plasma): 152 [67.7–308] | Cltot ([4]; D3 of cycle 1, n = 11, mean [range]): 12.9 [5.92–23.1] L/h | AUCinf/dose level of F14512 ([4]; D3 of cycle 1, plasma): 156 [65.9–270] | Difference of PK parameters between Day 1 and Day 3 ([4]; cycle 1, pairwise t-test or Wilcoxon test): not statistically significant | Antitumor activity in ovarian tumor models [5]: confirmed the antitumor activity | Objective response ([6]; 5 patients evaluable for efficacy, GCIG criteria): no objective response | Stable disease (SD) as best overall response ([6]; of 5 evaluable patients (40%), both received 9 cycles, 1 at each DL): 2 patients | Increased sensitivity to cytotoxicity compared to etoposide (SK-OV3 cancer cells): ten-fold

CC(=O)O[C@H]1C(=O)[C@@]2(C)[C@H]([C@H](OC(=O)c3ccccc3)[C@]3(O)C[C@H](OC(=O)[C@H](O)[C@@H](NC(=O)c4ccccc4)c4ccccc4)C(C)=C1C3(C)C)[C@]1(OC(C)=O)CO[C@@H]1C[C@@H]2O [paclitaxel]
Progression free survival [7]: 2–6 months | Response rates [7]: 0%–30%
